Results: US20240226026A1, “BRANCHED TAIL LIPID COMPOUNDS AND COMPOSITIONS FOR INTRACELLULAR DELIVERY OF THERAPEUTIC AGENTS” (ModernaTX, Inc., priority 2021, published 2024)

Tests used:
[1] = Particle size (diameter) and polydispersity index of lipid nanoparticles; format: physicochemical; settings: nanoparticles comprising the lipid
Procedure: A Zetasizer Nano ZS (Malvern Instruments Ltd, Malvern, Worcestershire, UK) can be used to determine the particle size, the polydispersity index (PDI) and the zeta potential of the nanoparticle compositions in 1×PBS in determining particle size and 15 mM PBS in determining zeta potential.
Lipid nanoparticles (e.g., empty LNPs or loaded LNPs) may be characterized by a variety of methods. For example, microscopy (e.g., transmission electron microscopy or scanning electron microscopy) may be used to examine the morphology and size distribution of a nanoparticle composition. Dynamic light scattering or potentiometry (e.g., potentiometric titrations) may be used to measure zeta potentials. Dynamic light scattering may also be utilized to determine particle sizes. Instruments such as the Zetasizer Nano ZS (Malvern Instruments Ltd, Malvern, Worcestershire, UK) may also be used to measure multiple characteristics of a nanoparticle composition, such as particle size, polydispersity index, and zeta potential.
(§1) Lipid nanoparticles (e.g., empty LNPs or loaded LNPs) including DSPC as a phospholipid, cholesterol as a structural lipid, PL-II (e.g., PEG-1) as a PEG lipid, and a lipid according to Formula (I-1), (I), (I-A), (I-A1), (I-A2), (I-A3), or (I-A4) were prepared. In some embodiments, the lipid nanoparticles further included rhodamine-DOPE as a fluorescent lipid. Tables 2a, 2b, and 3 summarize the characteristics of the formulations.

[2] = Encapsulation efficiency (% EE) of lipid nanoparticles; format: physicochemical; settings: nanoparticles comprising the lipid
Procedure: For nanoparticle compositions including an RNA, a QUANT-IT™ RIBOGREEN® RNA assay (Invitrogen Corporation Carlsbad, CA) can be used to evaluate the encapsulation of an RNA by the nanoparticle composition. The samples are diluted to a concentration of approximately 5 μg/mL in a TE buffer solution (10 mM Tris-HCl, 1 mM EDTA, pH 7.5). 50 μL of the diluted samples are transferred to a polystyrene 96 well plate and either 50 μL of TE buffer or 50 μL of a 2% Triton X-100 solution is added to the wells. The plate is incubated at a temperature of 37° C. for 15 minutes. The RIBOGREEN® reagent is diluted 1:100 in TE buffer, and 100 μL of this solution is added to each well. The fluorescence intensity can be measured using a fluorescence plate reader (Wallac Victor 1420 Multilablel Counter; Perkin Elmer, Waltham, MA) at an excitation wavelength of, for example, about 480 nm and an emission wavelength of, for example, about 520 nm. The fluorescence values of the reagent blank are subtracted from that of each of the samples and the percentage of free RNA is determined by dividing the fluorescence intensity of the intact sample (without addition of Triton X-100) by the fluorescence value of the disrupted sample (caused by the addition of Triton X-100).
The efficiency of encapsulation of a therapeutic and/or prophylactic describes the amount of therapeutic and/or prophylactic that is encapsulated or otherwise associated with a lipid nanoparticle (e.g., an empty LNP or a loaded LNP) after preparation, relative to the initial amount provided. The encapsulation efficiency is desired to be high (e.g., close to 100%). The encapsulation efficiency may be measured, for example, by comparing the amount of therapeutic and/or prophylactic in a solution containing a loaded LNP before and after breaking up the loaded LNP with one or more organic solvents or detergents. Fluorescence may be used to measure the amount of free therapeutic and/or prophylactic (e.g., RNA) in a solution. For the loaded LNPs formulated with lipids of the disclosure, the encapsulation efficiency of a therapeutic and/or prophylactic is at least 50%, for example 50%, 55%, 60%, 65%, 70%, 75%, 80%, 85%, 90%, 91%, 92%, 93%, 94%, 95%, 96%, 97%, 98%, 99%, or 100%. In some embodiments, the encapsulation efficiency is at least 80%. In some embodiments, the encapsulation efficiency is at least 90%. In some embodiments, the encapsulation efficiency of the therapeutic and/or prophylactic agent is between 80% and 100%.
as §1

[3] = Lipid nanoparticle surface hydrophobicity by Generalized Polarization by Laurdan (N-GP); format: physicochemical; settings: for Lipid nanoparticle surface hydrophobicity (N-GP*): Table 2a, Laurdan, higher N-GP indicates a less polar surface; for LNP surface hydrophobicity (N-GP*): Table 2b, nanoparticles comprising the lipid
Excerpt: Surface hydrophobicity of nanoparticles of the disclosure can be measured by Generalized Polarization by Laurdan (GPL). In this method, Laurdan, a fluorescent aminonaphthalene ketone lipid, is post-inserted into the nanoparticle surface and the fluorescence spectrum of Laurdan is collected to determine the normalized Generalized Polarization (N-GP). In some embodiments, nanoparticles formulated with lipids of the disclosure have a surface hydrophobicity expressed as N-GP of between about 0.5 and about 1.5. For example, in some embodiments, nanoparticles formulated with lipids of the disclosure have a surface hydrophobicity expressed as N-GP of about 0.5, about 0.6, about 0.7, about 0.8, about 0.9, about 1.0, about 1.1, about 1.2, about 1.3, about 1.4, or about 1.5. In some embodiments, nanoparticles formulated with lipids of the disclosure have a surface hydrophobicity expressed as N-GP of about 1.0 or about 1.1.

[4] = Apparent pKa of lipid nanoparticles; format: physicochemical; settings: for Apparent pKa: Table 2a, nanoparticles comprising the lipid; for Apparent pKa 95% CI: Table 2b, 95% confidence interval
CD-1 mice = assay: Expression of hEPO induced by LNPs (mRNA encoding hEPO) administered to mice; format: in vivo; settings: Table 4a, serum, 6 h after intravenous injection; for Avg. hEPO Concentration (mIU/mL)* ± Avg. SD: ELLA Simple Plex Assay
Procedure: In some embodiments, hEPO concentrations were determined using an […] (ELLA) Simple Plex Assay (ProteinSimple) with a Human Erythroprotein cartridge. Standards for this assay are calibrated according to the 2. IRP WHO preparation. Nanoparticle compositions including mRNA are useful in the evaluation of the efficacy and usefulness of various formulations for the delivery of therapeutic and/or prophylactics. Higher levels of protein expression induced by administration of a composition including an mRNA will be indicative of higher mRNA translation and/or nanoparticle composition mRNA delivery efficiencies. As the non-RNA components are not thought to affect translational machineries themselves, a higher level of protein expression is likely indicative of a higher efficiency of delivery of the therapeutic and/or prophylactic by a given nanoparticle composition relative to other nanoparticle compositions or the absence thereof.
To assess potency of expression of lipids of the disclosure, the protein expression (hEPO) following administration of a nanoparticle comprising a lipid of the disclosure (e.g., a loaded LNP) to mice was measured.
Lipid nanoparticles (LNPs) including DSPC as a phospholipid, cholesterol as a structural lipid, PL-II (e.g., PEG-1) as a PEG lipid, a lipid according to Formula (I-1), (I), (I-A), (I-A1), (I-A2), (I-A3), or (I-A4), and an mRNA encoding hEPO were intravenously administered to CD-1 mice. The concentration of hEPO in serum was tested at 6 h after injection.

[5] = Table 2a, DSPC, cholesterol, PEG lipid

Row | Structure (SMILES) | PDI ([1]; Table 2a) | Diameter (nm) [1, 5] | Diameter (nm) ([1]; Table 2b) | PDI ([1]; Table 2b) | Diameter (nm) ([1]; Table 3) | PDI ([1]; Table 3) | % EE ([2]; Table 2a) | % EE ([2]; Table 2b) | % EE ([2]; Table 3) | Lipid nanoparticle surface hydrophobicity (N-GP*) [3] | LNP surface hydrophobicity (N-GP*) [3] | Apparent pKa [4] | Apparent pKa 95% CI [4] | Avg. hEPO Concentration (mIU/mL) ± Avg. SD (CD-1 mice) | Avg. hEPO Concentration (mIU/mL)* ± Avg. SD (CD-1 mice)
1 | CCCCCC(CCCCC)CCOC(=O)CCCCCCCN(CCCCCCCC(=O)OCCC(CCCC)CCCC)CCCNS(=O)(=O)Cc1ccon1 [Compound 13] | 0.205 | 109.5 nm | 98.5 nm | 0.164 | 76.1 nm | 0.118 | 61.0% | 73.4% | 96.1% | 1.08 | 1.09 | 6.688 | 6.641 to 6.731 | 1.41E+07 ± 2.72E+05 mIU/mL | –
2 | CCCCCCCC(CCCCCCC)OC(=O)CCCCCCCN(CCCCCCCC(=O)OCCC(CCCC)CCCC)CCCNc1ncccc1N [Compound 21] | – | – | 98.9 nm | 0.305 | 92.8 nm | 0.255 | – | 97.9% | 98.4% | – | 1.18 | – | 6.685 to 6.778 | – | 8.77E+05 ± 1.73E+04 mIU/mL
3 | CCCCCC(CCCCC)CCOC(=O)CCCCCCCN(CCCCCCCC(=O)OCCC(CCCCC)CCCCC)CCCNc1ncccc1N [Compound 28] | – | – | 84.3 nm | 0.202 | 90.3 nm | 0.161 | – | 99.9% | 99.5% | – | 0.99 | – | 6.545 to 6.670 | – | 6.30E+05 ± 1.83E+04 mIU/mL
4 | CCCCCCCCC(CCCCCCCC)OC(=O)CCCCCCCN(CCCCCCCC(=O)OCCC(CCCC)CCCC)CCCNS(=O)(=O)CCOC [Compound 3] | 0.099 | 72.1 nm | – | – | 80.9 nm | 0.139 | 89.4% | – | 95.6% | 1.00 | – | 6.549 | – | 7.11E+06 ± 1.75E+05 mIU/mL | –
5 | CCCCCCCC(CCCCCCC)OC(=O)CCCCCCCN(CCCCCCCC(=O)OCCC(CCCC)CCCC)CCCNc1n[s+]([O-])nc1NC (centres unmarked) [Compound 15] | 0.128 | 76.4 nm | – | – | 74.2 nm | 0.212 | 96.6% | – | 97.2% | 0.94 | – | 6.761 | – | 3.74E+06 ± 1.61E+05 mIU/mL | –
6 | CCCCCC(CCCCC)CCOC(=O)CCCCCCCN(CCCCCCCC(=O)OCCC(CCCC)CCCC)CCCNS(=O)(=O)CC [Compound 12] | 0.248 | 120.2 nm | – | – | 109.2 nm | 0.155 | 80.9% | – | 94.1% | 1.04 | – | 6.669 | – | 5.83E+06 ± 1.13E+05 mIU/mL | –
7 | CCCCCCCC(CCCCCCC)OC(=O)CCCCCCCN(CCCCCCCC(=O)OCCC(CCCC)CCCC)CCCNc1noc(N)n1 [Compound 16] | – | – | 70.9 nm | 0.118 | 56.8 nm | 0.113 | – | 98.2% | 97.7% | – | 1.19 | – | 6.344 to 6.479 | – | 6.19E+05 ± 1.05E+04 mIU/mL
8 | CCCCCC(CCCCC)CCOC(=O)CCCCCCCN(CCCCCCCC(=O)OCCC(CCCCC)CCCCC)CCCNS(=O)(=O)CC [Compound 26] | 0.113 | 84.8 nm | – | – | 94.5 nm | 0.134 | 86.3% | – | 95.0% | 1.09 | – | 6.645 | – | 1.42E+07 ± 3.66E+05 mIU/mL | –
9 | CCCCCCCCC(CCCCCCCC)OC(=O)CCCCCCCN(CCCCCCCC(=O)OCCC(CCCC)CCCC)CCCNC(=O)C1(C)CC1 [Compound 4] | – | – | 94.5 nm | 0.198 | 84.6 nm | 0.194 | – | 45.9% | 54.1% | – | 1.05 | – | 6.676 to 6.749 | – | 1.04E+07 ± 2.85E+05 mIU/mL
